Results: patent publication US20050118290A1, “Compositions and method for treatment of steroid/nuclear receptor-mediated diseases” (University of Singapore, priority 2003, published 2005)
≈ marks a conversion by molar mass, not a printed value.

Assays:
Assay type in all cases: cell-based
PPARγ = biological target: T1, PPARγ (Homo sapiens, UniProt P37231); test: Chimeric Gal4DBD-PPARγLBD receptor / UASg-luciferase reporter gene assay in HeLa cells
T1 construct: expressed in transfected cells; host or cells: HeLa
T1 sequence (P37231 238-503 limits assumed): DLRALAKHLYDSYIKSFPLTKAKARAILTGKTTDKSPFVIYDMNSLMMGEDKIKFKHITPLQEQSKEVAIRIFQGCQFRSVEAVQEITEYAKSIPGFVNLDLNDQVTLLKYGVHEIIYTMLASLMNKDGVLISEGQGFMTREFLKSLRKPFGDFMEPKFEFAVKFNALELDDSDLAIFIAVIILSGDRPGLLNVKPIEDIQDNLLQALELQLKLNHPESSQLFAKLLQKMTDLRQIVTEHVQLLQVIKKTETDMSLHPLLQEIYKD
Text: (§1) In an example of such a reporter gene assay, a plasmid containing chimeric Ga14DBD-PPARLBD receptor cDNA was constructed by excising the ligand binding domain (LBD) of full length PPARγ and PPARα and ligating the resulting fragments in frame to the Ga14-DNA binding domain (DBD) of Saccharomyces cerevisiae in a pM vector (Clontech). Specifically, to construct Ga14DBD-PPARγLBD plasmid, pSG5 expression vector (Stratagene) containing full length PPARγ was excised with Rsa I and blunt ligated to Hind III site of pMGa14DBD expression plasmid (Clontech). To construct Ga14DBD-PPARαLBD plasmid, pSG5 expression vector (Stratagene) containing full length PPARα was excised with BstU I and BamH I and blunt-end ligated in frame to BamH I site of pMGa14DBD expression plasmid (Clontech). […] Ga14 DBD binds very strongly to the exogenous UASg promoter, thereby giving rise to a sensitive and specific assay. To measure PPARγ and PPARα agonist activity, HeLa cells were grown in 24-well microtiter plates and then transiently co-transfected with the two plasmids (chimeric PPAR receptor and UASg reporter gene) using Lipofectamine (Invitrogen). […] Concurrently, cells exposed to known PPAR ligands served as positive controls. Replicate wells, exposed to the vehicle solvent (i.e., ethanol or methanol) in which herbal extracts were dissolved, were used as negative controls. After the 40 hr incubation period, cells were rinsed with phosphate buffered saline (PBS), lysis buffer was added, and cell lysates were collected for measurement of luciferase activity using a luminometer. […] All data points are in triplicate. The data points represent the mean of triplicate wells. Luciferase activity in such an assay accurately reflects the activity of any ligands on PPARγ or PPARα.

human androgen receptor = biological target: T2, human androgen receptor (Homo sapiens, UniProt P10275); test: AR (ARE)2-Luc luciferase reporter gene assay in HeLa cells
T2 construct: expressed in transfected cells; host or cells: HeLa
T2 sequence (P10275 1-920): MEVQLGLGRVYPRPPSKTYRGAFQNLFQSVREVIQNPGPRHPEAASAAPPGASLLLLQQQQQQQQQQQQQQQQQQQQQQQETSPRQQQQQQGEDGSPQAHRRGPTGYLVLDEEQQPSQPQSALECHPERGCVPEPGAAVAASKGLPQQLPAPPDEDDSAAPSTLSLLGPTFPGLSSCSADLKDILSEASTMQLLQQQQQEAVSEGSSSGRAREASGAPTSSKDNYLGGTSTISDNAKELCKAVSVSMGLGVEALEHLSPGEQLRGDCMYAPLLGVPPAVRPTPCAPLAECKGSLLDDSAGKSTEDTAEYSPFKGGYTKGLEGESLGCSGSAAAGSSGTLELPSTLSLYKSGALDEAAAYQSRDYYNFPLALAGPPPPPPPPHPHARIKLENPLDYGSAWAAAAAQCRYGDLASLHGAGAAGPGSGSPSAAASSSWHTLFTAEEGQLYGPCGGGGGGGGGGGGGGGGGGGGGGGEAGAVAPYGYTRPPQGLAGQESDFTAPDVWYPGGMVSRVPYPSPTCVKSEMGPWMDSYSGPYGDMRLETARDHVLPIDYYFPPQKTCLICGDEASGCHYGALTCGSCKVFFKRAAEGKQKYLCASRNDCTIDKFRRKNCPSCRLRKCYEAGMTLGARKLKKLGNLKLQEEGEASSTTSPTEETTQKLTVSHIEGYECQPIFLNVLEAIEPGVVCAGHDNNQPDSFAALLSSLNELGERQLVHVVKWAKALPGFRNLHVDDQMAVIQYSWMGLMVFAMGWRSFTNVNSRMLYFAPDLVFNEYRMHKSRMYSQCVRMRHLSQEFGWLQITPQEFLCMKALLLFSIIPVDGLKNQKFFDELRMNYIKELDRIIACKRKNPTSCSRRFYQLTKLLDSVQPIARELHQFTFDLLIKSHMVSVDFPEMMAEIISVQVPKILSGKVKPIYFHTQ
Description: (§2) The capacity of HQ extract to activate other steroid receptors, namely AR, PR, GR, ERα and ERβ was examined. […] The (ARE)2-Luc plasmid consist of two repeats of Androgen Response Element (ARE) cloned upstream of the Luciferase Reporter gene in a pGL3-Basic vector (Promega).
(§3) AR, PR, GR and ERα and […] were determined by comparing luciferase activity in test cells with control cells exposed to vehicle (i.e., ethanol or methanol) only, analogous to the determination of PPAR activity as described in the previous examples.

PPARα = biological target: T3, PPARα (Homo sapiens, UniProt Q07869); test: Chimeric Gal4DBD-PPARαLBD receptor / UASg-luciferase reporter gene assay in HeLa cells; conditions: with WY14643 30×10^−6M
T3 construct: expressed in transfected cells; host or cells: HeLa
T3 sequence (Q07869 239-466 limits assumed): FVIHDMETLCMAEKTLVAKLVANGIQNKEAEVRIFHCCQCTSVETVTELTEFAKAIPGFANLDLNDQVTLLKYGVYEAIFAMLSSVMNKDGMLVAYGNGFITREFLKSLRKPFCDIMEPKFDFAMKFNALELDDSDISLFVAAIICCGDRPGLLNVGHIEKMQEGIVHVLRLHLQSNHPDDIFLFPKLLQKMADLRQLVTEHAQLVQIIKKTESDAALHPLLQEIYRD
Text: as §1

Progesterone Receptor = biological target: T4, Progesterone Receptor (Homo sapiens, UniProt P06401); test: PR (ARE)2-Luc luciferase reporter gene assay; conditions: Example 16; progesterone 100×10^−9M, 10 × 10^−9M (Table 11)
T4 construct: expressed in transfected cells; host or cells: HeLa (named for the formononetin and daidzein experiments)
T4 sequence (P06401 1-933): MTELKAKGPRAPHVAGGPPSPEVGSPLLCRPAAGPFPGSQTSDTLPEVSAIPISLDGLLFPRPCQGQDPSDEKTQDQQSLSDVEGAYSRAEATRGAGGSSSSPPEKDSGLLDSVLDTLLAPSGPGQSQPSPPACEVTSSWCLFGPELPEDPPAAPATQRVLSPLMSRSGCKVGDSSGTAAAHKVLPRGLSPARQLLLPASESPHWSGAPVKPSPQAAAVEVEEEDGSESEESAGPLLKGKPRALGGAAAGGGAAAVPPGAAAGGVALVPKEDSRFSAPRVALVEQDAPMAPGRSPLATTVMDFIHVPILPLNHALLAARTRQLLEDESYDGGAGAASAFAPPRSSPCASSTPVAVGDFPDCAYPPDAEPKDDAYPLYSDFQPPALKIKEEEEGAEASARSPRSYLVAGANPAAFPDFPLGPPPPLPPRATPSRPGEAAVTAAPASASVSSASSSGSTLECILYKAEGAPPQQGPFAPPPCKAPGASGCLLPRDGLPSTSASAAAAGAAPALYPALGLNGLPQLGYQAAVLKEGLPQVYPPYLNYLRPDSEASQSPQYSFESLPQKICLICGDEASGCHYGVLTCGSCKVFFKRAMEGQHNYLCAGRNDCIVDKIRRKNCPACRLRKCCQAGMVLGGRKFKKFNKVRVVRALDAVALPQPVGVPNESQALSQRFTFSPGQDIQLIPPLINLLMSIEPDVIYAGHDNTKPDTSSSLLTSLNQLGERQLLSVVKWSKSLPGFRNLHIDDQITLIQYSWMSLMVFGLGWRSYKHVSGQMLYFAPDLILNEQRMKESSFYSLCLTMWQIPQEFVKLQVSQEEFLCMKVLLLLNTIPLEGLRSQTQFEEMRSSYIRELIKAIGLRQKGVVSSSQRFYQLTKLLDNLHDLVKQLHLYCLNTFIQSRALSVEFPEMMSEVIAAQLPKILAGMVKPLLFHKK
Description: as §2, §3

[1] = GW9662 0.1 ×10^−6M (first line)
[2] = GW9662 0.1 ×10^−6M (second line, r12)

**Q.** For O=c1c(-c2ccc(O)cc2)coc2cc(O)cc(O)c12 [genistein], which “Luciferase activity (Fold ± SE), PPAR activity at fixed dose” value (from here on “Luciferase activity (Fold ± SE)”) (PPARγ; GW9662 0 ×10^−6M, fixed doses: HQ Water extract 8 × 10^−6 g/mL, HQ DCM extract 50 × 10^−6 g/mL, Formononetin, Genistein 10 × 10^−6 M) is on record?
**A.** The value was 7.37 ± 0.128 Fold.

**Q.** And the “Luciferase activity (Fold ± SE)” value (PPARγ; GW9662 0.3 ×10^−6M, fixed doses)?
**A.** The value was 93.6 ± 2.47 Fold.

**Q.** And the “Luciferase activity (Fold ± SE)” value (PPARγ; GW9662 1 ×10^−6M, fixed doses)?
**A.** Its value is 83.9 ± 4.37 Fold.

**Q.** And the “Luciferase activity (Fold ± SE)” value (PPARγ; GW9662 3 ×10^−6M, fixed doses)?
**A.** The value was 82.5 ± 2.63 Fold.

**Q.** What about the “Luciferase activity (Fold ± SE)” value (PPARγ; GW9662 10 ×10^−6M, fixed doses) of the same compound?
**A.** The value was 67.4 ± 1.52 Fold.

**Q.** And the “Luciferase activity (Fold ± SE)” value (PPARγ; GW9662 30 ×10^−6M, fixed doses)?
**A.** The value was 39.5 ± 0.403 Fold.

**Q.** What about the “intrinsic agonistic AR activity” value (human androgen receptor; 0.1 to 30×10^−6M, no dihydrotestosterone) of the same compound?
**A.** Its value is “does not display any intrinsic agohistic AR activity”.

**Q.** And the “further increase of the activity of saturating doses of dihydrotestosterone” value (human androgen receptor; dihydrotestosterone 10×10^−9M, FIG. 2A)?
**A.** The value was 5 fold.

**Q.** What about the “effect on the activity of dihydrotestosterone on AR” value (human androgen receptor; fixed 3×10^−6 M, dihydrotestosterone 0.01 to 10×10^−9M, FIG. 2B) of the same compound?
**A.** Its value is “augmented”.

**Q.** “3′,7-Dihydroxy-4′-methoxyisoflavone [calycosin]” was tested. Which “increase of the activity of maximal doses of PPARα agonist” value (PPARα) did it give?
**A.** The value was 7 fold.

**Q.** What about the “increase of the activity of maximal doses of AR agonist” value (human androgen receptor; with dihydrotestosterone 1×10^−9M) of the same compound?
**A.** Its value is 3 fold.

**Q.** And the “increase of the activity of maximal doses of PR agonist” value (Progesterone Receptor)?
**A.** Its value is 3 fold.

**Q.** Which “Luciferase activity ± SEM (% ciglitazone 10 × 10^−6 M), substance alone” value (PPARγ; 0.1 ×10^−6 g/mL) does the source give for CC1(COc2ccc(CC3SC(=O)NC3=O)cc2)CCCCC1 (stereo not shown) [ciglitazone, reference compound] here?
**A.** The value was 15.4 ± 0.81%.

**Q.** What about the “Luciferase activity ± SEM (% ciglitazone 10 × 10^−6 M), substance alone” value (PPARγ; 0.3 ×10^−6 g/mL) of the same compound?
**A.** The value was 21.7 ± 1.52%.

**Q.** What about the “Luciferase activity ± SEM (% ciglitazone 10 × 10^−6 M), substance alone” value (PPARγ; 1.0 ×10^−6 g/mL) of the same compound?
**A.** The value was 55.3 ± 7.99%.

**Q.** And the “Luciferase activity ± SEM (% ciglitazone 10 × 10^−6 M), substance alone” value (PPARγ; 3.0 ×10^−6 g/mL)?
**A.** The value was 100 ± 6.13%.

**Q.** What about the “Luciferase activity ± SEM (% ciglitazone 10 × 10^−6 M), HQ extract + ciglitazone 10 × 10^−6 M” value (PPARγ; HQ extract 0.0 ×10^−6 g/mL (ciglitazone 10 × 10^−6 M only)) of the same compound?
**A.** Its value is 100 ± 2.91%.

**Q.** How did the “Luciferase activity (% Pioglitazone 30 × 100^−6M ± SE), Piogliltazone (30 × 10^−6M)” value (PPARγ; [1]) turn out when O=C(Nc1ccccc1)c1cc([N+](=O)[O-])ccc1Cl [GW9662, reference compound] was run?
**A.** The value was 97 ± 23.8%.

**Q.** What about the “Luciferase activity (% Pioglitazone 30 × 100^−6M ± SE), Vehicle (DMSO)” value (PPARγ; [1]) of the same compound?
**A.** Its value is 13.8 ± 0.207%.

**Q.** What about the “Luciferase activity (% Pioglitazone 30 × 100^−6M ± SE), Piogliltazone (30 × 10^−6M)” value (PPARγ; [2]) of the same compound?
**A.** The value was 114 ± 5%.

**Q.** What about the “Luciferase activity (% Pioglitazone 30 × 100^−6M ± SE), Vehicle (DMSO)” value (PPARγ; [2]) of the same compound?
**A.** The value was 13.8 ± 2.28%.

**Q.** What about the “Luciferase activity (% Pioglitazone 30 × 100^−6M ± SE), Piogliltazone (30 × 10^−6M)” value (PPARγ; GW9662 1 ×10^−6M) of the same compound?
**A.** The value was 77.2 ± 11.4%.

**Q.** What about the “Luciferase activity (% Pioglitazone 30 × 100^−6M ± SE), Vehicle (DMSO)” value (PPARγ; GW9662 1 ×10^−6M) of the same compound?
**A.** Its value is 23.5 ± 2.74%.

**Q.** And the “Luciferase activity (% Pioglitazone 30 × 100^−6M ± SE), Piogliltazone (30 × 10^−6M)” value (PPARγ; GW9662 10 ×10^−6M)?
**A.** The value was 40.6 ± 12.3%.

**Q.** What about the “Luciferase activity (% Pioglitazone 30 × 100^−6M ± SE), Vehicle (DMSO)” value (PPARγ; GW9662 10 ×10^−6M) of the same compound?
**A.** Its value is 39.3 ± 4.38%.

**Q.** What about the “PPARγ activity on its own” value (PPARγ; Table 12) of the same compound?
**A.** The value was “weak PPARγ agonistic activity”.

**Q.** What about the “doses that inhibited the PPARγ effects of pioglitazone” value (PPARγ; with pioglitazone 30 × 10^−6M, dose-dependent) of the same compound?
**A.** Its value is “above 1 ×10^−6M”.

**Q.** Which “EC50 (PPARγ activity)” value (PPARγ; FIG. 1A, HeLa cells) does the source give for CCCCC/C=C/C=C1/C(=O)C=C[C@@H]1C/C=C\CCCC(=O)O [Compound 15DPGJ2, 15-deoxy-δ12,14, Prostaglandin J2, reference compound] here?
**A.** The value was 0.5 µg/mL (≈ 1.58 µM).
